In brackets after ≈: the same amount, converted by molar mass.
Legend:
PC-3 = assay: Cytotoxicity against human PC3 cells with PTEN mutant after 72 hrs; assay type: functional, cell-based; conditions: PC-3, 72 h
[1] = Solubility at pH 7.4; assay type: physicochemical; conditions: buffer
[2] = target: Serine/threonine-protein kinase mTOR (Homo sapiens, UniProt P42345); assay: Inhibition of mTOR by DELFIA
in vitro [3] = conditions: rat, liver microsomes
Description: Half life in rat liver microsomes

[4] = target: Phosphatidylinositol 4,5-bisphosphate 3-kinase catalytic subunit alpha isoform (Homo sapiens, UniProt P42336)
MDA-MB-361 = assay: cells; conditions: Homo sapiens, MDA-MB-361, 72 h
in vitro [5] = conditions: human, liver microsomes
Description: Half life in human liver microsomes

[6] = Solubility at pH 3; assay type: physicochemical; conditions: buffer
[7] = Drug level in human MDA-MB-361 cells xenografted nude mouse at 25 mg/kg, iv after 8 hrs; assay type: ADME, organism-based; set-up: dose 25 mg/kg, route intravenous; conditions: blood, read-out: Drug uptake
in vitro [8] = conditions: mouse, liver microsomes
Description: Half life in mouse liver microsomes

Phosphatidylinositol 4,5-bisphosphate 3-kinase catalytic subunit alpha isoform, sequence (P42336 whole entry, canonical isoform): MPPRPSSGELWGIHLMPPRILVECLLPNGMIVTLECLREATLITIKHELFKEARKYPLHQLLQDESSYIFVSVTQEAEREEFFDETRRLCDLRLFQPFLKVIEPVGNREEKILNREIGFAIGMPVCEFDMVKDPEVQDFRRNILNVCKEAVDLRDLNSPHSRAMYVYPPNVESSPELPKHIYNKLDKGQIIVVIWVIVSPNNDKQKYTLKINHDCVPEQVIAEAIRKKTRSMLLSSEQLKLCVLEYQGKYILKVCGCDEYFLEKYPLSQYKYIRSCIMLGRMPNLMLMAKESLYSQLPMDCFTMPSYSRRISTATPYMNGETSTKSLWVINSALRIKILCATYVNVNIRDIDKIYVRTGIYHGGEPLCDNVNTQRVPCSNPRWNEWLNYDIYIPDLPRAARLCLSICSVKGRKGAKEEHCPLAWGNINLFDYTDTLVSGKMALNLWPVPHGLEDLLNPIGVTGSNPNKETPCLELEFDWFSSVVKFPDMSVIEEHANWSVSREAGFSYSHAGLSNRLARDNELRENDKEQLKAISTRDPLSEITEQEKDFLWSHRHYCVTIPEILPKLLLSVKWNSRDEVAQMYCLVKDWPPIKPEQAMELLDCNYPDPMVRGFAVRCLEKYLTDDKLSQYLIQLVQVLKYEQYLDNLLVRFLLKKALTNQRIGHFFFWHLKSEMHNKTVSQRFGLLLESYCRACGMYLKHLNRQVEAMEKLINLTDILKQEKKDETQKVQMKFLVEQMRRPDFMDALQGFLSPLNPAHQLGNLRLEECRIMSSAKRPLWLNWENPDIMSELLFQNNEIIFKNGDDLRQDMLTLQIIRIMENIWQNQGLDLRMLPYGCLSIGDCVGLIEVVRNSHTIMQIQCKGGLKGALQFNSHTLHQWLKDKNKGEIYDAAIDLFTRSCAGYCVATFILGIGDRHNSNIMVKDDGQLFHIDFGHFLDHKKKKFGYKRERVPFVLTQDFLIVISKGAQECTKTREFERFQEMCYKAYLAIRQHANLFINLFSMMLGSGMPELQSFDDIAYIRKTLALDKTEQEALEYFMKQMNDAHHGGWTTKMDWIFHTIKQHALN

SMILES	IC50 (PC-3) [nM]	solubility [1] [µg/mL]	half-life (in vitro [3]) [min]	other results
O=CCn1ccc2c(N3CCOCC3)nc(-c3ccc(NC(=O)Nc4ccncc4)cc3)nc21	639	2 (≈ 4.37 µM)		
CN(C)CCn1ccc2c(N3CCOCC3)nc(-c3cccc(CO)c3)nc21	691	> 100		
O=C(Nc1ccncc1)Nc1ccc(-c2nc(N3CCOCC3)c3cc[nH]c3n2)cc1	187			
CN(C)CCn1ccc2c(N3CCOCC3)nc(-c3ccc(NC(=O)Nc4cccnc4)cc3)nc21	137	52 (≈ 107 µM)	9	IC50 [2]: 3 nM
Oc1cccc(-c2nc(N3CCOCC3)c3[nH]cc(C4CCN(Cc5ccc(F)cc5)CC4)c3n2)c1	1650			
CN(C)CCn1ccc2c(N3CCOCC3)nc(-c3ccc(NC(=O)Nc4ccncc4)cc3)nc21	100	52 (≈ 107 µM)	2	IC50 [4]: 8 nM
O=C(Nc1ccncc1)Nc1ccc(-c2nc(N3CCOCC3)c3ccn(CCO)c3n2)cc1	91	1 (≈ 2.18 µM)	22	IC50 [4]: 5 nM
CN(C)CCn1ccc2c(N3CCOCC3)nc(-c3ccc(NC(=O)Nc4ccccn4)cc3)nc21	882	21 (≈ 43.2 µM)	5	
CCn1ccc2c(N3CCOCC3)nc(-c3ccc(NC(=O)Nc4ccc(C(=O)N5CCN(C)CC5)cc4)cc3)nc21	17		15	IC50 (MDA-MB-361): 4.5 nM; IC50 [4]: 2.7 nM; half-life (in vitro [5]): > 30 min; IC50 [2]: 1.4 nM
CN1CCN(CCn2ccc3c(N4CCOCC4)nc(-c4ccc(NC(=O)Nc5ccncc5)cc4)nc32)CC1	964	> 100	4	
CN(C)CCn1ccc2c(N3CCOCC3)nc(-c3ccc(NC(=O)Nc4ccc(F)cc4)cc3)nc21	189			IC50 [2]: 8 nM
CN(C)CCn1ccc2c(N3CCOCC3)nc(-c3cccc(O)c3)nc21	1180	> 100		
O=C(Nc1ccncc1)Nc1ccc(-c2nc(N3CCOCC3)c3ccn(CCN4CCCC4)c3n2)cc1	555	28 (≈ 54.6 µM)	4	
CN(C)C1CCN(C(=O)c2ccc(NC(=O)Nc3ccc(-c4nc(N5CCOCC5)c5ccn(CC(F)(F)F)c5n4)cc3)cc2)CC1	45	1 (≈ 1.54 µM)	> 30	IC50 (MDA-MB-361): 11 nM
Oc1cccc(-c2nc(N3CCOCC3)c3[nH]ccc3n2)c1	1550			
OCc1cccc(-c2nc(N3CCOCC3)c3ncn(C4CCN(Cc5ccccc5)CC4)c3n2)c1			2	
O=C(Nc1ccncc1)Nc1ccc(-c2nc(N3CCOCC3)c3ccn(CCN4CCCCC4)c3n2)cc1	634	47 (≈ 89.2 µM)	4	

SMILES	IC50 (PC-3) [nM]	solubility [1] [µg/mL]	half-life (in vitro [3]) [min]	other results
CN(C)CCNCCn1ccc2c(N3CCOCC3)nc(-c3ccc(NC(=O)Nc4ccncc4)cc3)nc21	1150	58 (≈ 110 µM)	8	
O=C(Nc1ccncc1)Nc1ccc(-c2nc(N3CCOCC3)c3ccn(CC(F)(F)F)c3n2)cc1	82	1 (≈ 2.01 µM)	> 30	IC50 (MDA-MB-361): 53 nM
O=C(Nc1ccncc1)Nc1ccc(-c2nc(N3CCOCC3)c3ccn(CCN4CCNCC4)c3n2)cc1	2330	> 100	4	
OCc1cccc(-c2nc(N3CCOCC3)c3cc[nH]c3n2)c1	1210	38 (≈ 122 µM)		
CN(C)CCN(C)C(=O)c1ccc(NC(=O)Nc2ccc(-c3nc(N4CCOCC4)c4ccn(CC(F)(F)F)c4n3)cc2)cc1	13		29	IC50 (MDA-MB-361): < 3 nM; solubility [6]: > 100 µg/mL; half-life (in vitro [5]): > 30 min; concentration at 8 h [7]: 1730 ng/mL; IC50 [2]: 0.6 nM; half-life (in vitro [8]): > 30 min
CN(C)Cc1c[nH]c2c(N3CCOCC3)nc(-c3cccc(CO)c3)nc12	> 3160			
CCNC(=O)Nc1ccc(-c2nc(N3CCOCC3)c3ccn(CCN(C)C)c3n2)cc1		> 100	8	
CNC(=O)Nc1ccc(-c2nc(N3CCOCC3)c3ccn(CCN(C)C)c3n2)cc1	437	> 100	9	
Oc1cccc(-c2nc(N3CCOCC3)c3cc[nH]c3n2)c1	580	2 (≈ 6.75 µM)		
CCn1ccc2c(N3CCOCC3)nc(-c3ccc(NC(=O)Nc4ccc(C(=O)N5CCNCC5)cc4)cc3)nc21	27	1 (≈ 1.8 µM)	> 30	IC50 (MDA-MB-361): 4.5 nM; IC50 [4]: 0.8 nM; half-life (in vitro [5]): > 30 min; IC50 [2]: 0.9 nM
OCc1cccc(-c2nc(N3CCOCC3)c3[nH]cc(CN4CCCC4)c3n2)c1	> 3160			
COC(Cn1ccc2c(N3CCOCC3)nc(-c3ccc(NC(=O)Nc4ccncc4)cc3)nc21)OC	72	2 (≈ 3.97 µM)	4	
CCn1ccc2c(N3CCOCC3)nc(-c3ccc(NC(=O)Nc4ccc(C(=O)NCCN(C)C)cc4)cc3)nc21	26.5	1 (≈ 1.8 µM)	> 30	IC50 (MDA-MB-361): 5.5 nM; IC50 [4]: 1.8 nM; half-life (in vitro [5]): > 30 min; IC50 [2]: 0.5 nM
CN(C)CCNC(=O)c1ccc(NC(=O)Nc2ccc(-c3nc(N4CCOCC4)c4ccn(CC(F)(F)F)c4n3)cc2)cc1	23		> 30	IC50 (MDA-MB-361): 10.3 nM; solubility [6]: 68 µg/mL (≈ 111 µM); IC50 [4]: 1.4 nM; half-life (in vitro [5]): > 30 min; IC50 [2]: 0.4 nM
OCc1cccc(-c2nc(N3CCOCC3)c3[nH]ccc3n2)c1	2080			
CN1CCN(C(=O)c2ccc(NC(=O)Nc3ccc(-c4nc(N5CCOCC5)c5ccn(CC(F)(F)F)c5n4)cc3)cc2)CC1	17		27	IC50 (MDA-MB-361): 6.7 nM; solubility [6]: > 100 µg/mL; IC50 [4]: 2.4 nM; half-life (in vitro [5]): > 30 min; concentration at 8 h [7]: 1680 ng/mL; IC50 [2]: 1.7 nM; half-life (in vitro [8]): > 30 min

Reference: ChEMBL document CHEMBL1156188, “Synthesis and SAR of novel 4-morpholinopyrrolopyrimidine derivatives as potent phosphatidylinositol 3-kinase inhibitors” (J Med Chem, 2010)
